Measurements reported in the NIST ThermoML archive (doi:10.1021/acs.jced.8b00554).

Test: xn = mol fraction of the nth substance listed
Conditions: Liquid, Vibrating tube method

CCCCCCCCCC [decane] + CCCO
mass density [kg/m3]
Conditions | 353.15 K | 363.15 K
100 kPa, x2 = 0.1391 | – | 664.41
100 kPa, x2 = 0.1907 | – | 663.86
100 kPa, x2 = 0.3001 | – | 664.03
100 kPa, x2 = 0.4326 | – | 666.18
100 kPa, x2 = 0.6863 | – | 680.95
100 kPa, x2 = 0.8711 | – | 705.01
1000 kPa, x2 = 0.1907 | – | 665.28
1010 kPa, x2 = 0.1391 | – | 665.85
1010 kPa, x2 = 0.3001 | – | 666.15
1010 kPa, x2 = 0.6863 | – | 682.3
1010 kPa, x2 = 0.8711 | – | 706.22
1020 kPa, x2 = 0.4326 | – | 667.3
2000 kPa, x2 = 0.1391 | – | 667.06
2000 kPa, x2 = 0.1907 | – | 666.5
2000 kPa, x2 = 0.6863 | – | 683.55
2000 kPa, x2 = 0.8711 | – | 707.37
2020 kPa, x2 = 0.3001 | – | 667.4
2020 kPa, x2 = 0.4326 | – | 668.51
3000 kPa, x2 = 0.3001 | – | 668.59
3010 kPa, x2 = 0.1391 | – | 668.24
3010 kPa, x2 = 0.4326 | – | 669.77
3010 kPa, x2 = 0.6863 | – | 684.83
3020 kPa, x2 = 0.1907 | – | 667.69
3020 kPa, x2 = 0.8711 | – | 708.57
4010 kPa, x2 = 0.1391 | – | 669.44
4010 kPa, x2 = 0.1907 | – | 668.95
4010 kPa, x2 = 0.3001 | – | 669.83
4010 kPa, x2 = 0.6863 | – | 686.13
4010 kPa, x2 = 0.8711 | – | 709.79
4020 kPa, x2 = 0.4326 | – | 671.06
5000 kPa, x2 = 0.4326 | – | 672.31
5010 kPa, x2 = 0.1907 | – | 670.1
5010 kPa, x2 = 0.8711 | – | 711.06
5020 kPa, x2 = 0.1391 | – | 670.64
5020 kPa, x2 = 0.3001 | – | 671.07
5020 kPa, x2 = 0.6863 | – | 687.44
6010 kPa, x2 = 0.3001 | – | 672.31
6010 kPa, x2 = 0.8711 | – | 712.33
6020 kPa, x2 = 0.1391 | – | 671.83
6020 kPa, x2 = 0.1907 | – | 671.28
6020 kPa, x2 = 0.4326 | – | 673.61
6020 kPa, x2 = 0.6863 | – | 688.73
7010 kPa, x2 = 0.1907 | – | 672.49
7010 kPa, x2 = 0.6863 | – | 690.06
7020 kPa, x2 = 0.1391 | – | 673.03
7020 kPa, x2 = 0.3001 | – | 673.57
7020 kPa, x2 = 0.4326 | – | 674.92
7020 kPa, x2 = 0.8711 | – | 713.62
8000 kPa, x2 = 0.3001 | – | 674.82
8000 kPa, x2 = 0.4326 | – | 676.22
8000 kPa, x2 = 0.6863 | – | 691.39
8010 kPa, x2 = 0.1907 | – | 673.78
8020 kPa, x2 = 0.1391 | – | 674.3
8020 kPa, x2 = 0.8711 | – | 714.86
9000 kPa, x2 = 0.1391 | – | 675.46
9000 kPa, x2 = 0.3001 | – | 676.11
9000 kPa, x2 = 0.6863 | – | 692.72
9010 kPa, x2 = 0.1907 | – | 675
9010 kPa, x2 = 0.4326 | – | 677.52
9020 kPa, x2 = 0.8711 | – | 716.13
10000 kPa, x2 = 0.1391 | – | 676.67
10000 kPa, x2 = 0.1907 | – | 676.19
10010 kPa, x2 = 0.3001 | 690.11 | 677.41
10010 kPa, x2 = 0.6863 | – | 694.02
10010 kPa, x2 = 0.8711 | 731.37 | 717.4
10020 kPa, x2 = 0.1907 | 688.55 | –
10020 kPa, x2 = 0.4326 | – | 678.87
11000 kPa, x2 = 0.1391 | – | 677.93
11000 kPa, x2 = 0.6863 | 710.38 | –
11010 kPa, x2 = 0.3001 | 691.26 | 678.66
11010 kPa, x2 = 0.4326 | 694.72 | –
11010 kPa, x2 = 0.6863 | – | 695.33
11020 kPa, x2 = 0.1391 | 689.4 | –
11020 kPa, x2 = 0.1907 | 689.66 | 677.43
11020 kPa, x2 = 0.4326 | – | 680.14
11020 kPa, x2 = 0.8711 | 732.51 | 718.66
12000 kPa, x2 = 0.1391 | – | 679.09
12000 kPa, x2 = 0.1907 | – | 678.73
12000 kPa, x2 = 0.3001 | – | 679.92
12010 kPa, x2 = 0.1391 | 690.47 | –
12010 kPa, x2 = 0.1907 | 690.83 | –
12010 kPa, x2 = 0.4326 | 695.89 | 681.46
12010 kPa, x2 = 0.6863 | 711.53 | 696.59
12010 kPa, x2 = 0.8711 | 733.61 | 719.87
12020 kPa, x2 = 0.3001 | 692.38 | –
13000 kPa, x2 = 0.3001 | 693.53 | –
13000 kPa, x2 = 0.8711 | 734.68 | –
13010 kPa, x2 = 0.1391 | 691.56 | 680.3
13010 kPa, x2 = 0.1907 | – | 679.91
13010 kPa, x2 = 0.3001 | – | 681.16
13010 kPa, x2 = 0.4326 | – | 682.71
13010 kPa, x2 = 0.6863 | – | 697.91
13020 kPa, x2 = 0.1907 | 691.91 | –
13020 kPa, x2 = 0.4326 | 697.03 | –
13020 kPa, x2 = 0.6863 | 712.69 | –
13020 kPa, x2 = 0.8711 | – | 721.04
14000 kPa, x2 = 0.1907 | – | 681.11
14000 kPa, x2 = 0.4326 | – | 683.94
14010 kPa, x2 = 0.1391 | – | 681.47
14010 kPa, x2 = 0.1907 | 692.99 | –
14010 kPa, x2 = 0.3001 | – | 682.38
14020 kPa, x2 = 0.1391 | 692.62 | –
14020 kPa, x2 = 0.3001 | 694.63 | –
14020 kPa, x2 = 0.4326 | 698.13 | –
14020 kPa, x2 = 0.6863 | 713.81 | 699.14
14020 kPa, x2 = 0.8711 | 735.8 | 722.27
15000 kPa, x2 = 0.1907 | – | 682.24
15000 kPa, x2 = 0.4326 | – | 685.14
15000 kPa, x2 = 0.6863 | – | 700.32
15010 kPa, x2 = 0.3001 | – | 683.55
15010 kPa, x2 = 0.4326 | 699.22 | –
15010 kPa, x2 = 0.6863 | 714.9 | –
15010 kPa, x2 = 0.8711 | 736.86 | 723.44
15020 kPa, x2 = 0.1391 | 693.66 | 682.58
15020 kPa, x2 = 0.1907 | 694.05 | –
15020 kPa, x2 = 0.3001 | 695.7 | –
16000 kPa, x2 = 0.3001 | – | 684.7
16000 kPa, x2 = 0.4326 | – | 686.33
16010 kPa, x2 = 0.1391 | 694.64 | 683.66
16010 kPa, x2 = 0.1907 | 695.08 | 683.38
16010 kPa, x2 = 0.4326 | 700.29 | –
16010 kPa, x2 = 0.6863 | 715.98 | –
16010 kPa, x2 = 0.8711 | – | 724.56
16020 kPa, x2 = 0.3001 | 696.78 | –
16020 kPa, x2 = 0.6863 | – | 701.55
16020 kPa, x2 = 0.8711 | 737.89 | –
17000 kPa, x2 = 0.3001 | – | 685.86
17000 kPa, x2 = 0.4326 | 701.32 | –
17010 kPa, x2 = 0.1391 | – | 684.77
17010 kPa, x2 = 0.1907 | 696.15 | 684.57
17010 kPa, x2 = 0.3001 | 697.84 | –
17010 kPa, x2 = 0.4326 | – | 687.43
17010 kPa, x2 = 0.6863 | 717.03 | –
17020 kPa, x2 = 0.1391 | 695.67 | –
17020 kPa, x2 = 0.6863 | – | 702.7
17020 kPa, x2 = 0.8711 | 738.93 | 725.68
18000 kPa, x2 = 0.1391 | – | 685.82
18000 kPa, x2 = 0.1907 | – | 685.6
18000 kPa, x2 = 0.3001 | – | 686.93
18010 kPa, x2 = 0.4326 | 702.35 | –
18010 kPa, x2 = 0.6863 | 718.05 | 703.81
18010 kPa, x2 = 0.8711 | – | 726.78
18020 kPa, x2 = 0.1391 | 696.65 | –
18020 kPa, x2 = 0.1907 | 697.1 | –
18020 kPa, x2 = 0.3001 | 698.82 | –
18020 kPa, x2 = 0.4326 | – | 688.58
18020 kPa, x2 = 0.8711 | 739.92 | –
19000 kPa, x2 = 0.1391 | 697.56 | 686.79
19000 kPa, x2 = 0.4326 | – | 689.63
19000 kPa, x2 = 0.8711 | – | 727.82
19010 kPa, x2 = 0.1907 | 698.02 | 686.57
19010 kPa, x2 = 0.3001 | 699.8 | 687.98
19020 kPa, x2 = 0.4326 | 703.33 | –
19020 kPa, x2 = 0.6863 | 719.04 | 704.89
19020 kPa, x2 = 0.8711 | 740.89 | –
20000 kPa, x2 = 0.3001 | – | 688.93
20000 kPa, x2 = 0.4326 | 704.33 | –
20000 kPa, x2 = 0.6863 | 720.06 | –
20000 kPa, x2 = 0.8711 | 741.82 | 728.82
20010 kPa, x2 = 0.1391 | 698.43 | 687.72
20010 kPa, x2 = 0.1907 | 698.94 | 687.53
20010 kPa, x2 = 0.3001 | 700.68 | –
20010 kPa, x2 = 0.4326 | – | 690.72
20010 kPa, x2 = 0.6863 | – | 706
